Results: patent US9890171B2, “Aldosterone synthase inhibitors” (Boehringer Ingelheim International GmbH, priority 2014, dated 2018)

molecular target: aldosterone synthase (CYP11B2) (Macaca fascicularis, UniProt A0A2K5UPL9); experiment: aldosterone synthase inhibition assay; format: biochemical, cynomolgus monkey; conditions: cynomolgus adrenal gland mitochondria, 2 μM corticosterone, aldosterone quantified by mass spectrometry
Description: The aldosterone synthase inhibition assay employs cynomolgus adrenal gland mitochondria as the source of aldosterone synthase (CYP11B2). Mitochondria are prepared from frozen cynomolgus monkey adrenal glands according to Method A described in by J. D. McGarry et al. (Biochem. J., 1983, 214, 21-28), with a final resuspension in the AT buffer described in R. Yamaguchi et al. (Cell Death and Differentiation, 2007, 14, 616-624), frozen as aliquots in liquid nitrogen and stored at −80° C. until use.
Assays are performed in 96-well format in a final volume of 60 μL/well, containing 100 mM potassium phosphate, pH 7.4, 1% (v/v) DMSO, and additionally, 2 μM of corticosterone and […] of mitochondrial protein. Reactions are started by the addition of NADPH to 1 mM and allowed to proceed for 60-90 minutes at 37° C. Reactions are terminated by the addition of […]. One hundred microliters are then transferred to a glass filter plate and centrifuged at 570×g for 5 minutes and the filtrate is collected. Reaction product aldosterone is quantified by mass spectrometry. To determine the assay blank value (0% activity), NADPH is omitted from some reactions.
Dose dependent inhibition is quantified by the inclusion of compound at various concentrations. Maximum activity (100%) is defined by reactions containing NADPH, but without compound. Activities at each concentration are expressed as a percentage of the maximum activity (y-axis) and plotted against concentration of compound (x-axis) and the concentration corresponding to 50% activity (IC50) determined using the XLFit curve-fitting program using a 4-parameter logistic model.

aldosterone synthase (CYP11B2), sequence (A0A2K5UPL9 1-503): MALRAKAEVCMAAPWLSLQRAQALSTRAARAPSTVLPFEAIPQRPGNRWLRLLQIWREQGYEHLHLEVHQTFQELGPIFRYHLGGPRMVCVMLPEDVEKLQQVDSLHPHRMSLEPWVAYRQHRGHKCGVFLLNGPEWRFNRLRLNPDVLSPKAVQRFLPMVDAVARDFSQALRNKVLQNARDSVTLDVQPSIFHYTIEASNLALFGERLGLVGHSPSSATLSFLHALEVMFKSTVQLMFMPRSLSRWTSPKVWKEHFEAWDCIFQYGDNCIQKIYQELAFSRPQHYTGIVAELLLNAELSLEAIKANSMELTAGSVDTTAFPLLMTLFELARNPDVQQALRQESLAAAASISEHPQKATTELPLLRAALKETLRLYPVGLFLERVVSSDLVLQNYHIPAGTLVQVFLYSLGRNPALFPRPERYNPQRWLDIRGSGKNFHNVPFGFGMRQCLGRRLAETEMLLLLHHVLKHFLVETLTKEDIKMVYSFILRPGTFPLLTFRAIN

How did the IC50 turn out when CCC(=O)NC1COCc2c(-c3ccc4c(cnn4C)c3)cncc21 (single isomer, unassigned) [Compound 72, N-[8-(1-Methyl-1H-indazol-5-yl)-3,4-dihydro-1H-pyrano[4,3-c]pyridin-4-yl]-propionamide] was run?
Its IC50 is 2300 nM.

Which IC50 does the source give for CCC(=O)NC1COCc2c(-c3ccc4c(cnn4C)c3)cncc21 (single isomer, unassigned) [Compound 73, N-[8-(1-Methyl-1H-indazol-5-yl)-3,4-dihydro-1H-pyrano[4,3-c]pyridin-4-yl]-propionamide] here?
Its IC50 is 34.6 nM.

How did the IC50 turn out when CC(=O)NC1COCc2c(-c3ccc4cnn(C)c4c3)cncc21 (single isomer, unassigned) [Compound 74, N-[8-(1-Methyl-1H-indazol-6-yl)-3,4-dihydro-1H-pyrano[4,3-c]pyridin-4-yl]-acetamide] was run?
The IC50 was 25.6 nM.

How did the IC50 turn out when Cn1ncc2ccc(-c3cncc4c3COCC4NC(=O)C3CC3)cc21 (single isomer, unassigned) [Compound 75, Cyclopropanecarboxylic acid [8-(1-methyl-1H-indazol-6-yl)-3,4-dihydro-1H-pyrano[4,3-c]pyridin-4-yl]-amide] was run?
Its IC50 is 26.4 nM.

Which IC50 does the source give for CCC(=O)NC1COCc2c(-c3ccc4cnn(C)c4c3)cncc21 (single isomer, unassigned) [Compound 76, N-[8-(1-Methyl-1H-indazol-6-yl)-3,4-dihydro-1H-pyrano[4,3-c]pyridin-4-yl]-propionamide] here?
Its IC50 is 17.9 nM.

CC(C)C(=O)NC1COCc2c(-c3ccc4cnn(C)c4c3)cncc21 (single isomer, unassigned) [Compound 77, N-[8-(1-Methyl-1H-indazol-6-yl)-3,4-dihydro-1H-pyrano[4,3-c]pyridin-4-yl]-isobutyramide] was tested. Which IC50 did it give?
The IC50 was 32.6 nM.

How did the IC50 turn out when CCS(=O)(=O)NC1COCc2c(-c3cc4c(cnn4C)cc3C)cncc21 (single isomer, unassigned) [Compound 78, Ethanesulfonic acid [8-(1,5-dimethyl-1H-indazol-6-yl)-3,4-dihydro-1H-pyrano[4,3-c]pyridin-4-yl]-amide] was run?
The IC50 was 2800 nM.

CCS(=O)(=O)NC1COCc2c(-c3cc4c(cnn4C)cc3C)cncc21 (single isomer, unassigned) [Compound 79, Ethanesulfonic acid [8-(1,5-dimethyl-1H-indazol-6-yl)-3,4-dihydro-1H-pyrano[4,3-c]pyridin-4-yl]-amide] was tested. Which IC50 did it give?
Its IC50 is 653 nM.

For Cn1ncc2ccc(-c3cncc4c3COCC4NS(C)(=O)=O)cc21 (single isomer, unassigned) [Compound 80, N-[8-(1-Methyl-1H-indazol-6-yl)-3,4-dihydro-1H-pyrano[4,3-c]pyridin-4-yl]-methanesulfonamide], which IC50 is on record?
The IC50 was 2100 nM.

How did the IC50 turn out when Cn1ncc2ccc(-c3cncc4c3COCC4NS(C)(=O)=O)cc21 (single isomer, unassigned) [Compound 81, N-[8-(1-Methyl-1H-indazol-6-yl)-3,4-dihydro-1H-pyrano[4,3-c]pyridin-4-yl]-methanesulfonamide] was run?
The IC50 was 28.5 nM.

Which IC50 does the source give for CCS(=O)(=O)NC1COCc2c(-c3ccc4c(cnn4C)c3)cncc21 (single isomer, unassigned) [Compound 82, Ethanesulfonic acid [8-(1-methyl-1H-indazol-5-yl)-3,4-dihydro-1H-pyrano[4,3-c]pyridin-4-yl]-amide] here?
The IC50 was 215 nM.

How did the IC50 turn out when CCS(=O)(=O)NC1COCc2c(-c3ccc4cnn(C)c4c3)cncc21 (single isomer, unassigned) [Compound 83, Ethanesulfonic acid [8-(1-methyl-1H-indazol-6-yl)-3,4-dihydro-1H-pyrano[4,3-c]pyridin-4-yl]-amide] was run?
Its IC50 is 31.3 nM.

For O=C1NCCc2cc(-c3cncc4c3COC3(CC3)C4O)ccc21 (single isomer, unassigned) [Compound 84, 6-[4-hydroxyspiro[1,4-dihydropyrano[4,3-c]pyridine-3,1′-cyclopropane]-8-yl]-3,4-dihydro-2H-isoquinolin-1-one], which IC50 is on record?
The IC50 was 255 nM.

For O=C1NCCc2cc(-c3cncc4c3COC3(CC3)C4O)ccc21 (single isomer, unassigned) [Compound 85, 6-[4-hydroxyspiro[1,4-dihydropyrano[4,3-c]pyridine-3,1′-cyclopropane]-8-yl]-3,4-dihydro-2H-isoquinolin-1-one], which IC50 is on record?
Its IC50 is 90.9 nM.

With Cc1ncc2ccc(-c3cncc4c3COCC4O)cn12 (single isomer, unassigned) [Compound 86, 8-(3-Methyl-imidazo[1,5-a]pyridin-6-yl)-3,4-dihydro-1H-pyrano[4,3-c]pyridin-4-ol] as the molecule, how does the IC50 read?
The IC50 was 494 nM.

With Cc1ncc2ccc(-c3cncc4c3COCC4O)cn12 (single isomer, unassigned) [Compound 87, 8-(3-Methyl-imidazo[1,5-a]pyridin-6-yl)-3,4-dihydro-1H-pyrano[4,3-c]pyridin-4-ol] as the molecule, how does the IC50 read?
The IC50 was 123 nM.

For Cc1ncc2ccc(-c3cncc4c3COC3(CC3)C4O)cn12 (single isomer, unassigned) [Compound 88, 8-(3-methylimidazo[1,5-a]pyridin-6-yl)spiro[1,4-dihydropyrano[4,3-c]pyridine-3,1′-cyclopropane]-4-ol], which IC50 is on record?
The IC50 was 128 nM.

With Cc1ncc2ccc(-c3cncc4c3COC3(CC3)C4O)cn12 (single isomer, unassigned) [Compound 89, 8-(3-methylimidazo[1,5-a]pyridin-6-yl)spiro[1,4-dihydropyrano[4,3-c]pyridine-3,1′-cyclopropane]-4-ol] as the molecule, how does the IC50 read?
The IC50 was 73 nM.

With Cc1noc2ccc(-c3cncc4c3COCC4O)cc12 (single isomer, unassigned) [Compound 90, 8-(3-Methyl-benzo[d]isoxazol-5-yl)-3,4-dihydro-1H-pyrano[4,3-c]pyridin-4-ol] as the molecule, how does the IC50 read?
The IC50 was 8.5 nM.

How did the IC50 turn out when Cc1nnc2ccc(-c3cncc4c3COC3(CC3)C4O)cn12 (single isomer, unassigned) [Compound 91, 8-(3-methyl-[1,2,4]triazolo[4,3-a]pyridin-6-yl)spiro[1,4-dihydropyrano[4,3-c]pyridine-3,1′-cyclopropane]-4-ol] was run?
The IC50 was 220 nM.

For Cn1ncc2c(F)cc(-c3cncc4c3COC3(CC3)C4O)cc21 (single isomer, unassigned) [Compound 92, 8-(4-fluoro-1-methyl-indazol-6-yl)spiro[1,4-dihydropyrano[4,3-c]pyridine-3,1′-cyclopropane]-4-ol], which IC50 is on record?
Its IC50 is 11.5 nM.

For Cc1nnc2ccc(-c3cncc4c3COC3(CC3)C4O)cn12 (single isomer, unassigned) [Compound 93, 8-(3-methyl-[1,2,4]triazolo[4,3-a]pyridin-6-yl)spiro[1,4-dihydropyrano[4,3-c]pyridine-3,1′-cyclopropane]-4-ol], which IC50 is on record?
The IC50 was 271 nM.

Cc1noc2ccc(-c3cncc4c3COCC4O)cc12 (single isomer, unassigned) [Compound 94, 8-(3-Methyl-benzo[d]isoxazol-5-yl)-3,4-dihydro-1H-pyrano[4,3-c]pyridin-4-ol] was tested. Which IC50 did it give?
The IC50 was 10.1 nM.

How did the IC50 turn out when Cc1nnc2ccc(-c3cncc4c3COCC4O)cn12 (single isomer, unassigned) [Compound 95, 8-(3-Methyl-[1,2,4]triazolo[4,3-a]pyridin-6-yl)-3,4-dihydro-1H-pyrano[4,3-c]pyridin-4-ol] was run?
The IC50 was 766 nM.

How did the IC50 turn out when Cn1ncc2c(F)cc(-c3cncc4c3COCC4O)cc21 (single isomer, unassigned) [Compound 96, 8-(4-Fluoro-1-methyl-1H-indazol-6-yl)-3,4-dihydro-1H-pyrano[4,3-c]pyridin-4-ol] was run?
Its IC50 is 8.1 nM.

For Cc1nnc2ccc(-c3cncc4c3COCC4O)cn12 (single isomer, unassigned) [Compound 97, 8-(3-Methyl-[1,2,4]triazolo[4,3-a]pyridin-6-yl)-3,4-dihydro-1H-pyrano[4,3-c]pyridin-4-ol], which IC50 is on record?
The IC50 was 205 nM.

Which IC50 does the source give for OC1COCc2c(-c3ccc4nncn4c3)cncc21 (single isomer, unassigned) [Compound 98, 8-[1,2,4]Triazolo[4,3-a]pyridin-6-yl-3,4-dihydro-1H-pyrano[4,3-c]pyridin-4-ol] here?
Its IC50 is 1300 nM.

With OC1COCc2c(-c3ccn4ccnc4c3)cncc21 (single isomer, unassigned) [Compound 99, 8-Imidazo[1,2-a]pyridin-7-yl-3,4-dihydro-1H-pyrano[4,3-c]pyridin-4-ol] as the molecule, how does the IC50 read?
The IC50 was 5000 nM.

With OC1COCc2c(-c3ccc4nncn4c3)cncc21 (single isomer, unassigned) [Compound 100, 8-[1,2,4]Triazolo[4,3-a]pyridin-6-yl-3,4-dihydro-1H-pyrano[4,3-c]pyridin-4-ol] as the molecule, how does the IC50 read?
The IC50 was 2300 nM.

OC1COCc2c(-c3ccn4ccnc4c3)cncc21 (single isomer, unassigned) [Compound 101, 8-Imidazo[1,2-a]pyridin-7-yl-3,4-dihydro-1H-pyrano[4,3-c]pyridin-4-ol] was tested. Which IC50 did it give?
The IC50 was 225 nM.

O=C1CCc2cc(-c3cncc4c3COCC4O)ccc21 (single isomer, unassigned) [Compound 103, 5-(4-Hydroxy-3,4-dihydro-1H-pyrano[4,3-c]pyridin-8-yl)-indan-1-one] was tested. Which IC50 did it give?
Its IC50 is 10 nM.

For NC(=O)c1cccc2cc(-c3cncc4c3COCC4O)cnc12 (single isomer, unassigned) [Compound 104, 3-(4-Hydroxy-3,4-dihydro-1H-pyrano[4,3-c]pyridin-8-yl)-quinoline-8-carboxylic acid amide], which IC50 is on record?
Its IC50 is 81 nM.
